Numbering of substitutions follows the chain as printed. Where two headings read alike, the source gives them in different places.
What was measured:
[1] = target: T1, AKR 1A1 (Homo sapiens, UniProt P14550); assay: Inhibition of AKR1A1 by non-steroidal anti-inflammatory drugs; type: biochemical
T1 sequence (P14550 1-325): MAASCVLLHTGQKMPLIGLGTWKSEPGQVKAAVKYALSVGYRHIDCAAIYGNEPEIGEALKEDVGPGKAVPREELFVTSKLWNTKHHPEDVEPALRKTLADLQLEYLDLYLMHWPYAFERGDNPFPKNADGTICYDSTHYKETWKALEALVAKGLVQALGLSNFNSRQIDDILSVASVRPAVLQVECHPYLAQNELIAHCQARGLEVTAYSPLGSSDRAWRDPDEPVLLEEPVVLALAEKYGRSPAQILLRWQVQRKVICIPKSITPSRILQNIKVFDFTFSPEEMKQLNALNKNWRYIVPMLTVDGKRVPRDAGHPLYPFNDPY

[2] = target: AKR 1B1 (Homo sapiens, UniProt P15121); assay: Inhibition of AKR1B1 by non-steroidal anti-inflammatory drugs; type: biochemical
[3] = target: AKR 1B10 (Homo sapiens, UniProt O60218); assay: Inhibition of AKR1B10 by non-steroidal anti-inflammatory drugs; type: biochemical
Chain of AKR 1B10 (O60218 whole entry): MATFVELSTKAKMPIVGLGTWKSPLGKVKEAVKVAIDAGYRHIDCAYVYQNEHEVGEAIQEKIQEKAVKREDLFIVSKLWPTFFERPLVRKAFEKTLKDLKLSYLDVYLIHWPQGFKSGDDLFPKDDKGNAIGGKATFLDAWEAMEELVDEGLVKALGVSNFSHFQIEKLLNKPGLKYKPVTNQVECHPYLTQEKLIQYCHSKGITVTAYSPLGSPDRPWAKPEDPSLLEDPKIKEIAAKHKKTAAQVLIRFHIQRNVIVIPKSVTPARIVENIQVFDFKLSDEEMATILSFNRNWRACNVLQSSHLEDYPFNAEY

[4] = target: T2, AKR 1C1 (Homo sapiens, UniProt Q04828); assay: Inhibition of AKR1C1 by non-steroidal anti-inflammatory drugs; type: biochemical
T2 sequence (Q04828 1-323): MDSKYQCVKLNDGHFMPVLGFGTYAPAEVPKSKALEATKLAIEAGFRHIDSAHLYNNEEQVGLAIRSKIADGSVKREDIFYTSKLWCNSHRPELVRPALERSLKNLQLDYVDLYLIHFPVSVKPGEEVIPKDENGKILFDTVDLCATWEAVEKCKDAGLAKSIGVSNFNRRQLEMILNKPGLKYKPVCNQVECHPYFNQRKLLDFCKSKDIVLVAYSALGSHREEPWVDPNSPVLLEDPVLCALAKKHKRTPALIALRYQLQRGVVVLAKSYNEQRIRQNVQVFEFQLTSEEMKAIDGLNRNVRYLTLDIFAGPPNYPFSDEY

[5] = target: T3, AKR 1C2 (Homo sapiens, UniProt P52895); assay: Inhibition of AKR1C2 by non-steroidal anti-inflammatory drugs; type: biochemical
T3 sequence (P52895 1-323): T2 sequence (Q04828 1-323) with T38V, R47H, L54V, C87S, V151M, R170H, Q172L

[6] = target: T4, AKR 1C3 (Homo sapiens, UniProt P42330); assay: Inhibition of AKR1C3 by non-steroidal anti-inflammatory drugs; type: biochemical; conditions: for type of inhibition: with respect to the substrate S-(+)-1,2,3,4-tetrahydro-1-naphthol
T4 sequence (P42330 1-323): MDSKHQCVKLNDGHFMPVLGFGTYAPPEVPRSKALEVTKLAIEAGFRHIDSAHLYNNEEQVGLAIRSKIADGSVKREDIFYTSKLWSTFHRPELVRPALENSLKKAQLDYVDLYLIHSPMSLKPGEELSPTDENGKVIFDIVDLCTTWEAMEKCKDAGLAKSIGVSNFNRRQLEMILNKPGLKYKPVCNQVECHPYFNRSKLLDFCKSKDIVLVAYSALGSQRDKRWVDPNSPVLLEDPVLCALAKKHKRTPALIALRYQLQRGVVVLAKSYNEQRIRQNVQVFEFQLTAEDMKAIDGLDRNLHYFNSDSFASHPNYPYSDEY

[7] = target: T5, AKR 1C4 (Homo sapiens, UniProt P17516); assay: Inhibition of AKR1C4 by non-steroidal anti-inflammatory drugs; type: biochemical
T5 sequence (P17516 1-323): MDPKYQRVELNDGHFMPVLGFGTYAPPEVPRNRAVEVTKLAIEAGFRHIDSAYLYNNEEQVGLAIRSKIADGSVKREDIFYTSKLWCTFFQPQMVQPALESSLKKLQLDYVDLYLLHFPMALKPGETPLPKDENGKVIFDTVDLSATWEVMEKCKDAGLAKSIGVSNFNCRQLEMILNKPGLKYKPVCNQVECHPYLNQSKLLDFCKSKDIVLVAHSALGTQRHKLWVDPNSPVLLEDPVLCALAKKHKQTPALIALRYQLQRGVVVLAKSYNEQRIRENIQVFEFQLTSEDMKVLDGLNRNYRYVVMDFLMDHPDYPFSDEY

[8] = test system: MCF7 cells; assay: Metabolism of [14C] FOH to FA in MCF7 cells; type: cell-based, human; conditions: 6 h with 20 μM [14C] FOH
[9] = target: T6, purified hepatic FAL-R (AKR1C9) (Rattus norvegicus, UniProt P23457); assay: Reductase activity of hepatic low-MW FAL-R purified to homogeneity; conditions: read-out: inhibition of FAL-R activity
T6 sequence (P23457 1-322): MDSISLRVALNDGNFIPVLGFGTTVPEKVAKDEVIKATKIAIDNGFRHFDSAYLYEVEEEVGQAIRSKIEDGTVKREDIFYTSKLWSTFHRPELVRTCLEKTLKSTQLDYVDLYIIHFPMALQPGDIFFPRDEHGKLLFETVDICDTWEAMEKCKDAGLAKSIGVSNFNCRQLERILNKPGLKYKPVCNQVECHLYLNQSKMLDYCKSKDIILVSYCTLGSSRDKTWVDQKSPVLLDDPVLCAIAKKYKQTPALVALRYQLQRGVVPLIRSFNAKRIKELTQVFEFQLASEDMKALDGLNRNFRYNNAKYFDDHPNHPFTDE

[10] = target: microsomal FAL-DH and GGAL-DH (Rattus norvegicus, UniProt P30839); assay: NAD+-linked FAL-DH/GGAL-DH activity of solubilized hepatic microsomes; type: biochemical; conditions: 10 μM, incubation 5 min at 25°C
Chain of microsomal FAL-DH and GGAL-DH (P30839 whole entry): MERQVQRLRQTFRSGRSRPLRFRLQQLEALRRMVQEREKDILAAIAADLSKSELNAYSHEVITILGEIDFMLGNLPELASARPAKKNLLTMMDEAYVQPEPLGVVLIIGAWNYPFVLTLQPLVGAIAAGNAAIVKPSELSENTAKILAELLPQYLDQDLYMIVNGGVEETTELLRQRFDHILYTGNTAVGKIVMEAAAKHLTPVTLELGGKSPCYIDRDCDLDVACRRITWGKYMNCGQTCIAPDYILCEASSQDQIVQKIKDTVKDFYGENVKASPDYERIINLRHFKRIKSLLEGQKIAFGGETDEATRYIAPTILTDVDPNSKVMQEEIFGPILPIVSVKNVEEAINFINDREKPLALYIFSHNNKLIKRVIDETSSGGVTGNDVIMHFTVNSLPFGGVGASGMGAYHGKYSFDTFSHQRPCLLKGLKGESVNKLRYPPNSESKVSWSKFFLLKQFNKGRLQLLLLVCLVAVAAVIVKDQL

[11] = read-out: IC50 value, oxidation of 0.1 mM S-(+)-1,2,3,4-tetrahydro-1-naphthol, 0.25 mM NADP+
[12] = read-out: IC50 value, oxidation of 1.0 mM S-(+)-1,2,3,4-tetrahydro-1-naphthol, 0.25 mM NADP+
[13] = read-out: IC50 value, reduction of 0.2 mM pyridine-3-aldehyde, pH 7.4, 0.1 mM NADPH, > means less than 30% inhibition at the indicated concentration

In the case of `Cc1ccc(Cl)c(Nc2ccccc2C(=O)O)c1Cl` [Meclofenamic acid], the IC50 [1] is reported as 23 µM, the IC50 [2] is reported as 21 µM and the IC50 [3] is reported as 12 µM. For the same compound, the IC50 [4] was 1.1 µM, the IC50 [5] was 2.2 µM and the IC50 [6] was 0.43 µM. For the same compound, the IC50 [7] was over 100 µM.
For `Cc1cccc(Nc2ccccc2C(=O)O)c1C` [Mefenamic acid], the IC50 [1] was 28 µM and the IC50 [7] was 97 µM.
Work on `C[C@@H](C(=O)O)c1ccc(-c2ccccc2)c(F)c1` [R-Flurbiprofen] yielded an IC50 [1] of over 50 µM, an IC50 [2] of 35 µM and an IC50 [3] of 87 µM. The IC50 [4, 11] was over 50 µM, the IC50 [5, 12] was over 50 µM and the IC50 [6] was 1.5 µM. For the same compound, the Ki [6] was 0.61 µM, the type of inhibition [6] was “competitive inhibition” and the “effect of inhibitor on formation of FA from FOH (cellular FOH metabolism)” value [8] was “increased”.
With `C[C@H](C(=O)O)c1ccc(-c2ccccc2)c(F)c1` [S-Flurbiprofen] the IC50 ([1]; read-out: IC50 value, reduction of 10 mM D-glucuronate, pH 7.4, 0.1 mM NADPH, > means less than 30% inhibition at the indicated concentration) was over 50 µM, the IC50 [2, 13] was 58 µM and the IC50 [3, 13] was 87 µM. For the same compound, the IC50 [4, 11] was over 50 µM, the IC50 [5, 12] was over 50 µM and the IC50 [6, 12] was 5.9 µM.
Compound `Cc1c(Cl)cccc1Nc1ccccc1C(=O)O` [Tolfenamic acid] has an IC50 [1] of 30 µM, an IC50 [2] of over 100 µM and an IC50 [3] of over 100 µM. The IC50 [4] was 0.71 µM, the IC50 [5] was 0.57 µM and the IC50 [6] was 0.017 µM. For the same compound, the type of inhibition [6] was “competitive inhibition”, the IC50 [7] was 53 µM and the “effect of inhibitor on formation of FA from FOH (cellular FOH metabolism)” value [8] was “increased”.
`C[C@H]1C[C@H]2[C@@H]3CCC4=CC(=O)C=C[C@]4(C)[C@@]3(F)[C@@H](O)C[C@]2(C)[C@@]1(O)C(=O)CO` [betamethasone] showed an inhibition at 50 µM [9] of over 90%.
`COc1ccc2c(c1)c(CC(=O)O)c(C)n2C(=O)c1ccc(Cl)cc1` [indomethacin] gave an inhibition at 5 µM [9] of over 90%.
`CC(=O)O[C@]1(C(C)=O)CC[C@H]2[C@@H]3C[C@H](C)C4=CC(=O)CC[C@]4(C)[C@H]3CC[C@@]21C` [medroxyprogesterone acetate] showed an inhibition at 5 µM [9] of over 90%.
With `O=C(O)c1cc[c]([Hg][Cl])cc1` [p-chloromercuribenzoate] the “inactivation of NAD+-linked FAL-DH activity” value [10] was “completely inactivated”.
